Assays:
[1] = test system: primary mouse neuroglial cultures; assay: Cell death by high content imaging (Hoechst/NeuN nuclear shrinkage) after chronic hyperstimulation; type: cell-based; settings: 1 mM
Experimental: To determine whether pyruvate and citrate protect neurons and glial cells from cell death induced by chronic electrical hyperstimulation. To assess protection from cell death induced by repeated hyperstimulation, primary mouse neuroglial cultures were assayed. Neuroglial cell cultures were prepared and grown until DIV14 as described above. From DIV14 until DIV17 they were switched to NBM containing B27, low (2.5 mM) glucose, and low (0.1 mM) Mg^2+ or high (0.8 mM) Mg^2+. Incubation in low (0.1 mM) Mg^2+ medium increases the neuronal firing rates, thus creating a state of chronic hyperstimulation. The test nutrients (pyruvate or citrate) were supplied through the medium from DIV14 until DIV17. On DIV17, the cell nuclei were stained with the Hoechst dye and co-immunolabelled for NeuN, a protein found only in the nuclei of neurons. The neuronal and non-neuronal cell nuclei were scored for nuclear shrinkage, a hallmark of cell death, by high content imaging.
To assess cell death by high content imaging the cells were fixed on DIV17 in 1% formaldehyde, permeabilized with ethanol and incubated with a rabbit polyclonal IgG antibody against NeuN, a neuron-specific protein localized to the nucleus, followed by detection with a secondary anti-rabbit IgG antibody linked to a red fluorescent label. Neuronal and non-neuronal cell nuclei were then counterstained with the blue fluorescent nuclear dye Hoechst. The nuclei were counted by a high content imager based on signal intensity and size. A cut-off value was applied to exclude objects of low signal intensity considered noise. Then, cut-off values were applied to exclude objects with an area below 30 μM^2 considered cell debris and objects with an area above 300 μM^2 considered cell clumps. A boundary of 60 μM^2 was set to distinguish between nuclei from alive and dead cells. Objects areas of 30 μM^2 to 60 μM^2 were counted as nuclei from dead cells, while object areas of 60 μM^2 to 300 μM^2 were counted as nuclei from alive cells. The counting was done at 20-fold magnification on a fixed number of optical fields per well. The counts of nuclei from dead neurons or dead cells were related to the number of alive neurons or alive cells, respectively, in the same well.
Neuroglial cell cultures were supplemented with 1 mM citrate from DIV14 until DIV17. On DIV17, total cell death and neuron-specific cell death were quantified by high content imaging. The total number of Hoechst positive objects or NeuN positive objects prior to applying cut-off values for the signal intensity and the area size was equal between the different groups (FIG. 10 A, D).

[2] = test system: primary rat neuronal-glial cell cultures; assay: Seahorse assay (OCR/ECAR), acute 1 h nutrient pre-incubation, resting or seizure-like conditions; type: cell-based; settings: for increase in OM-induced glycolytic rates (tended): FIG. 3D
[3] = test system: Phosphofructokinase 1 (PFK1); settings: tissue- and brain-specific isoforms; cited from earlier work

## O=C(O)CC(O)(CC(=O)O)C(=O)O [citrate]
[1]; DIV14-DIV17, chronic hyperstimulation, FIG. 10C/11C
  increase in dead cell counts from high Mg2+ to low Mg2+ medium: ~4%
[1]; DIV14-DIV17, high (0.8 mM) Mg2+ medium, FIG. 10C/11C
  dead cell counts: ~19%
[1]; DIV14-DIV17, high Mg2+ medium, FIG. 10F/11F
  dead neuron count (neuron death): −1.5%
[1]; DIV14-DIV17, low (0.1 mM) Mg2+ medium, FIG. 10C/11C
  dead cell counts: ~23%
[1]; DIV14-DIV17, low Mg2+ medium, FIG. 10F/11F
  dead neuron count (neuron death): ~1.4%
[1]; DIV14-DIV17, FIG. 10B/11B
  effect on alive cell count: not impacting
[1]; DIV14-DIV17, FIG. 10F/11F
  effect on rise in neuron death induced by chronic hyperstimulation: entirely blocked
[2]; 1 mM citrate, 0.1 mM Mg2+ medium
  increase in OM-induced glycolytic rates (tended): ~15%
[2]; 1 mM citrate, 0.8 mM Mg2+ control medium, FIG. 3A
  increase in total (mitochondrial and glycolytic) ATP production: ~75%
[2]; 1 mM citrate, 0.8 mM Mg2+ control medium, FIG. 3B
  increase in basal mitochondrial respiration: ~100%
[2]; 1 mM citrate, 0.8 mM Mg2+ control medium, FIG. 3E
  increase in FCCP-driven maximal glycolytic capacity (tended): ~35%
[2]; 1 mM citrate, 0.8 mM Mg2+ medium, FIG. 3C
  increase in basal glycolytic rates: ~70%
[2]; 1 mM citrate, 0.8 mM Mg2+ medium
  increase in OM-induced glycolytic rates (tended): ~60%
[2]; resting, high Mg2+ medium (DMEM, 5 mM glucose), dose-dependent, vs control medium without citrate, FIG. 1E
  increase in mitochondrial oxygen consumption rates (OCR) at baseline: ≤ 25%
[2]; resting, high Mg2+ medium (DMEM, 5 mM glucose), vs control medium without citrate, FIG. 1F
  increase in OM-induced proton leak: ≤ 10%
[2]; resting, high Mg2+ medium (DMEM, 5 mM glucose), vs control medium without citrate, FIG. 1G
  effect on FCCP-driven maximal respiratory capacity: not significantly impacting
[2]; resting, high Mg2+ medium, 0.25 mM citrate, FIG. 2E, F
  increase in OM- and FCCP-induced maximal glycolytic capacity: 10-15%
[2]; resting, high Mg2+ medium, acute, dose-dependent, FIG. 2D
  increase in basal glycolytic rates and lactate secretion: ~25%
[3]
  concentrations at which PFK1 isoforms are inhibited: above 100 μM
